Reference: US20250215029A1 (Recludix Pharma, Inc., priority 2022, published 2025)
pIC50: −log10 of the molar value.

Experiments:
[1] = molecular target: T1, Recombinant STAT6 protein (STAT6 (W123-T658)) (Homo sapiens, UniProt P42226); experiment: STAT6 Fluorescence Polarization (FP) Assay; format: binding; conditions: STAT6 (W123-T658) 250 nM, probe 5-FAM-Ap[…]-NH2 2 nM, 45-minute incubation; read-out: STAT6 (FP assay IC50 class)
T1 construct: Recombinant STAT6 protein (STAT6 (W123-T658))
T1 sequence (P42226 123-658): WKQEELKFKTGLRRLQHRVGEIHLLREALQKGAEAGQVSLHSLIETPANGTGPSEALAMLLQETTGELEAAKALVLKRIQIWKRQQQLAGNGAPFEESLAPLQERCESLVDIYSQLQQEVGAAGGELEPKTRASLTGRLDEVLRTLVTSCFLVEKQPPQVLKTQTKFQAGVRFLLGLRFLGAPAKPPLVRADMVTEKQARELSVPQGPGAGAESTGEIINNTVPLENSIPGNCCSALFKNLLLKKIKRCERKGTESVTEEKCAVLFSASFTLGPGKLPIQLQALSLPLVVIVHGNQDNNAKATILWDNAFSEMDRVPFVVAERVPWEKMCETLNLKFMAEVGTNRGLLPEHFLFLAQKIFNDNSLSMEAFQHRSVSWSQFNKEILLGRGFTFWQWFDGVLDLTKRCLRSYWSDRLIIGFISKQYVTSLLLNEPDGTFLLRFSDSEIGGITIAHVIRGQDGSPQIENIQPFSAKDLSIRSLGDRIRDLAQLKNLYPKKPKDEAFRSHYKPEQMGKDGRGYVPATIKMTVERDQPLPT
Summary of the method: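 Competitive FP binding: recombinant STAT6 (W123-T658) at 250 nM, labeled phosphotyrosine peptide at 2 nM, compounds at 1% DMSO, 45 min at RT before reading. IC50 values were obtained from nonlinear regression of mP versus log concentration.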

[2] = molecular target: T2, Recombinant STAT3 protein (STAT3 (G127-I722)) (Homo sapiens, UniProt P40763); experiment: STAT3 Fluorescence Polarization (FP) Assay; format: binding; conditions: STAT3 (G127-I722) 25 nM, probe 5-FAM-GpYLPQTV-NH2 2 nM, 45-minute incubation; read-out: STAT3 (FP assay IC50 class)
T2 construct: Recombinant STAT3 protein (STAT3 (G127-I722))
Summary of the method: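 Displacement of a 2 nM 5-FAM-labelled pY peptide (GpYLPQTV) from 25 nM recombinant STAT3 (G127-I722) was monitored by fluorescence polarization. Incubation lasted 45 min at room temperature in pH 7.4 HEPES buffer containing 1% DMSO.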

T2 sequence (P40763 127-722): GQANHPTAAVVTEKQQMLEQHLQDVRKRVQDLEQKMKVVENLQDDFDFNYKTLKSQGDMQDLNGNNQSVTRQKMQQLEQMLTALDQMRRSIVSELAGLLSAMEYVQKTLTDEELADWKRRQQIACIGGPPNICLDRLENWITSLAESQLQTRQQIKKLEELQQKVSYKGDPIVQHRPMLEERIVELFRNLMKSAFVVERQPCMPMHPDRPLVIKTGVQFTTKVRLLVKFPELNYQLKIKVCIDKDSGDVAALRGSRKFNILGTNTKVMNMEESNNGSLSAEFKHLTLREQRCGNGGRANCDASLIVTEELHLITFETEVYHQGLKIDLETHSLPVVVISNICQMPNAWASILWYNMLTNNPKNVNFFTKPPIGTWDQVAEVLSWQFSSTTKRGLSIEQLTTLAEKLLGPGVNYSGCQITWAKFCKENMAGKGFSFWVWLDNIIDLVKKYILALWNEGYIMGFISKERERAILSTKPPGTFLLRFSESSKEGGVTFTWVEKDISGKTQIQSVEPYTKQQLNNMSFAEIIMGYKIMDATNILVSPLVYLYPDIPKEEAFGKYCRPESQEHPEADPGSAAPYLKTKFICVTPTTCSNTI

| SMILES | pIC50 [1] | pIC50 [2] |
| --- | --- | --- |
| C[C@H]1C[C@H]2CC[C@@H](C(=O)N3CC(c4cnccc4N(C)C)C3)N2C(=O)[C@@H](NC(=O)c2cc3cc(CP(=O)(O)O)ccc3s2)C1 [Compound 638, ((2-(((3S,6S,8R,9aR)-3-(3-(4-(dimethylamino)pyridin-3-yl)azetidine-1-carbonyl)-8-methyl-5-oxooctahydro-1H-pyrrolo[1,2-a]azepin-6-yl)carbamoyl)benzo [b]thiophen-5-yl)methyl) phosphonic acid] | 4.52 to 5.52 | > 7.00 |
| C[C@@H]1C[C@H]2CC[C@@H](C(=O)N3CC(c4cnccc4N(C)C)C3)N2C(=O)[C@@H](NC(=O)c2cc3cc(CP(=O)(O)O)ccc3s2)C1 [Compound 639, ((2-(((3S,6S,8S,9aR)-3-(3-(4-(dimethylamino)pyridin-3-yl)azetidine-1-carbonyl)-8-methyl-5-oxooctahydro-1H-pyrrolo[1,2-a]azepin-6-yl)carbamoyl)benzo [b]thiophen-5-yl)methyl) phosphonic acid] | 4.52 to 5.52 | > 7.00 |
| O=C(N[C@H]1CCCC[C@H]2CC[C@@H](C(=O)NCc3cnc4[nH]cnc4c3)N2C1=O)c1cc2cc(CP(=O)(O)O)ccc2s1 [Compound 640, ((2-(((3S,6S,10aS)-3-(((3H-imidazo[4,5-b]pyridin-6-yl)methyl)carbamoyl)-5-oxodecahydropyrrolo [1,2-a]azocin-6-yl)carbamoyl)benzo [b]thiophen-5-yl)methyl) phosphonic acid] | 4.52 to 5.52 | 6.00 to 7.00 |
| C/C1=C/C[C@H](NC(=O)c2cc3cc(C(F)(F)P(=O)(O)O)ccc3s2)C(=O)N2[C@H](CC[C@H]2C(=O)N2CC(c3cnccc3C)C2)C1 [Compound 641, (difluoro(2-(((3S,6S,10aR,Z)-9-methyl-3-(3-(4-methylpyridin-3-yl)azetidine-1-carbonyl)-5-oxo-1,2,3,5,6,7,10,10a-octahydropyrrolo[1,2-a]azocin-6-yl)carbamoyl)benzo [b]thiophen-5-yl)methyl) phosphonic acid] | 5.52 to 6.52 | > 7.00 |
| C/C1=C/C[C@H](NC(=O)c2cc3cc(CP(=O)(O)O)ccc3s2)C(=O)N2[C@H](CC[C@H]2C(=O)N2CC(c3cnccc3C)C2)C1 [Compound 642, ((2-(((3S,6S,10aR,Z)-9-methyl-3-(3-(4-methylpyridin-3-yl)azetidine-1-carbonyl)-5-oxo-1,2,3,5,6,7,10,10a-octahydropyrrolo[1,2-a]azocin-6-yl)carbamoyl)benzo [b]thiophen-5-yl)methyl) phosphonic acid] | 4.52 to 5.52 | 6.00 to 7.00 |
| C/C1=C/[C@H]2CC[C@@H](C(=O)N3CC(c4cnccc4C)C3)N2C(=O)[C@@H](NC(=O)c2cc3cc(C(F)(F)P(=O)(O)O)ccc3s2)CC1 [Compound 643, (difluoro(2-(((3S,6S,10aR,Z)-9-methyl-3-(3-(4-methylpyridin-3-yl)azetidine-1-carbonyl)-5-oxo-1,2,3,5,6,7,8,10a-octahydropyrrolo[1,2-a]azocin-6-yl)carbamoyl)benzo [b]thiophen-5-yl)methyl) phosphonic acid] | 5.52 to 6.52 | > 7.00 |
| C/C1=C/[C@H]2CC[C@@H](C(=O)N3CC(c4cnccc4C)C3)N2C(=O)[C@@H](NC(=O)c2cc3cc(CP(=O)(O)O)ccc3s2)CC1 [Compound 644, ((2-(((3S,6S,10aR,Z)-9-methyl-3-(3-(4-methylpyridin-3-yl)azetidine-1-carbonyl)-5-oxo-1,2,3,5,6,7,8,10a-octahydropyrrolo[1,2-a]azocin-6-yl)carbamoyl)benzo [b]thiophen-5-yl)methyl) phosphonic acid] | 4.52 to 5.52 | 6.00 to 7.00 |
| O=C(N[C@H]1CCCC[C@H]2CC[C@@H](C(=O)NC(CO)c3c[nH]c4ncccc34)N2C1=O)c1cc2cc(C(F)(F)P(=O)(O)O)ccc2s1 (stereo partly drawn) [Compound 645, (difluoro(2-(((3S,6S,10aS)-3-((2-hydroxy-1-(1H-pyrrolo[2,3-b]pyridin-3-yl)ethyl)carbamoyl)-5-oxodecahydropyrrolo [1,2-a]azocin-6-yl)carbamoyl)benzo [b]thiophen-5-yl)methyl) phosphonic acid] | 4.52 to 5.52 | 6.00 to 7.00 |
| Cc1cc(=O)[nH]cc1C1CN(C(=O)[C@@H]2CC[C@@H]3CCC[C@H](NC(=O)c4cc5cc(CP(=O)(O)O)ccc5s4)C(=O)N32)C1 [Compound 646, ((2-(((3S,6S,9aS)-3-(3-(4-methyl-6-oxo-1,6-dihydropyridin-3-yl)azetidine-1-carbonyl)-5-oxooctahydro-1H-pyrrolo[1,2-a]azepin-6-yl)carbamoyl)benzo [b]thiophen-5-yl)methyl) phosphonic acid] | 4.52 to 5.52 | 5.00 to 6.00 |
| Cc1ccncc1C1CN(C(=O)[C@@H]2CC[C@@H]3CCCC[C@H](NC(=O)c4cc5cc(CP(=O)(O)O)ccc5s4)C(=O)N32)C1 [Compound 647, ((2-(((3S,6S,10aS)-3-(3-(4-methylpyridin-3-yl)azetidine-1-carbonyl)-5-oxodecahydropyrrolo [1,2-a]azocin-6-yl)carbamoyl)benzo [b]thiophen-5-yl)methyl) phosphonic acid] | 4.52 to 5.52 | 6.00 to 7.00 |
| Cc1nccnc1C1CN(C(=O)[C@@H]2CC[C@@H]3CCC[C@H](NC(=O)c4cc5cc(C(F)(F)P(=O)(O)O)ccc5s4)C(=O)N32)C1 [Compound 648, (difluoro(2-(((3S,6S,9aS)-3-(3-(3-methylpyrazin-2-yl)azetidine-1-carbonyl)-5-oxooctahydro-1H-pyrrolo[1,2-a]azepin-6-yl)carbamoyl)benzo [b]thiophen-5-yl)methyl) phosphonic acid] | 4.52 to 5.52 | > 7.00 |
| Cc1nccnc1C1CN(C(=O)[C@@H]2CC[C@@H]3CCC[C@H](NC(=O)c4cc5cc(CP(=O)(O)O)ccc5s4)C(=O)N32)C1 [Compound 649, ((2-(((3S,6S,9aS)-3-(3-(3-methylpyrazin-2-yl)azetidine-1-carbonyl)-5-oxooctahydro-1H-pyrrolo[1,2-a]azepin-6-yl)carbamoyl)benzo [b]thiophen-5-yl)methyl) phosphonic acid] | 4.52 to 5.52 | 5.00 to 6.00 |
| Cc1cncnc1C1CN(C(=O)[C@@H]2CC[C@@H]3CCC[C@H](NC(=O)c4cc5cc(CP(=O)(O)O)ccc5s4)C(=O)N32)C1 [Compound 650, ((2-(((3S,6S,9aS)-3-(3-(5-methylpyrimidin-4-yl)azetidine-1-carbonyl)-5-oxooctahydro-1H-pyrrolo[1,2-a]azepin-6-yl)carbamoyl)benzo [b]thiophen-5-yl)methyl) phosphonic acid] | 4.52 to 5.52 | 5.00 to 6.00 |
| COC1(c2cccnc2)CN(C(=O)[C@@H]2CC[C@@H]3CCCC[C@H](NC(=O)c4cc5cc(CP(=O)(O)O)ccc5s4)C(=O)N32)C1 [Compound 651, ((2-(((3S,6S,10aS)-3-(3-methoxy-3-(pyridin-3-yl)azetidine-1-carbonyl)-5-oxodecahydropyrrolo [1,2-a]azocin-6-yl)carbamoyl)benzo [b]thiophen-5-yl)methyl) phosphonic acid] | 4.52 to 5.52 | 5.00 to 6.00 |
| Cc1cncnc1C1CN(C(=O)[C@@H]2CC[C@@H]3CCC[C@H](NC(=O)c4cc5cc(C(F)(F)P(=O)(O)O)ccc5s4)C(=O)N32)C1 [Compound 652, (difluoro(2-(((3S,6S,9aS)-3-(3-(5-methylpyrimidin-4-yl)azetidine-1-carbonyl)-5-oxooctahydro-1H-pyrrolo[1,2-a]azepin-6-yl)carbamoyl)benzo [b]thiophen-5-yl)methyl) phosphonic acid] | 5.52 to 6.52 | 6.00 to 7.00 |
| N#Cc1cccc(C2CN(C(=O)[C@@H]3CC[C@@H]4CCC[C@H](NC(=O)c5cc6cc(CP(=O)(O)O)ccc6s5)C(=O)N43)C2)n1 [Compound 653, ((2-(((3S,6S,9aS)-3-(3-(6-cyanopyridin-2-yl)azetidine-1-carbonyl)-5-oxooctahydro-1H-pyrrolo[1,2-a]azepin-6-yl)carbamoyl)benzo [b]thiophen-5-yl)methyl) phosphonic acid] | 4.52 to 5.52 | 6.00 to 7.00 |
| COCC1(c2ncccn2)CN(C(=O)[C@@H]2CC[C@@H]3CCCC[C@H](NC(=O)c4cc5cc(C(F)(F)P(=O)(O)O)ccc5s4)C(=O)N32)C1 [Compound 654, (difluoro(2-(((3S,6S,10aS)-3-(3-(methoxymethyl)-3-(pyrimidin-2-yl)azetidine-1-carbonyl)-5-oxodecahydropyrrolo [1,2-a]azocin-6-yl)carbamoyl)benzo [b]thiophen-5-yl)methyl) phosphonic acid] | 4.52 to 5.52 | 6.00 to 7.00 |
